For test [1], the system named is CD34+CD36−IL-3R+ cells (BFU-E cells). Description: Liquid culture of sorted BFU-E cells, cell numbers counted every day. The class given is cell-based, human. As to the method:
(§1) Cells from day 5 cultures were used for sorting since at this time the cultured cells contain about equal numbers of BFU-E and CFU-E forming progenitors. 50×10^6 cells were suspended in 4 mL PBS/0.5% BSA in a 50 mL tube. Cells were blocked with 4% human AB serum for 10 min and subsequently incubated with PE-conjugated mouse anti-human CD34, FITC-conjugated mouse anti-human CD36 and PE-Cy7-conjugated mouse anti-human IL3-R on ice for 30 min in the dark. Cells were washed twice with 40 mL PBS/0.5% BSA and re-suspended in 5 mL PBS/0.5% BSA and stained with the viability marker 7-AAD on ice for 10 min in the dark. Sorting was performed on a MOFLO high-speed cell sorter (Beckman-Coulter). To sort BFU-E and CFU-E cells from primary human bone marrow, we first obtained mononuclear cells by Ficoll density gradient separation. We then obtained CD45^+ cells by positive selection using CD45 magnetic beads. The CD45^+ cells were stained with PE-conjugated mouse anti-human CD34, FITC-conjugated mouse anti-human CD36, PE-Cy7-conjugated mouse anti-human IL3-R, APC-cy7-conjugated mouse anti-human CD45 and APC-conjugated mouse anti-human CD71 for 30 min in the dark. Cells were washed twice with 40 mL PBS/0.5% BSA, re-suspended in 5 mL PBS/0.5% BSA and stained with the viability marker 7-AAD on ice for 10 min in the dark. Sorting was performed on a MOFLO high-speed cell sorter (Beckman-Coulter).
(§2) 0.1×10^6 of sorted BFU-E and the CFU-E cells were cultured in 1 ml of the first phase culture media (as described before) in the absence or presence of dexamethasone (1 μM) or lenalidomide (10 nM). The cell numbers were counted every day.

A further test concerns human CD34+ cells. To be noted: cited from earlier work.
Test [2] relates to CD34−CD36+IL-3R− cells (CFU-E cells). Description: Liquid culture of sorted CFU-E cells, cell numbers counted every day. The class given is cell-based, human. As to the method: as §1, with “Cells were washed twice with 40 mL PBS/0.5% BSA, re-suspended in 5 mL PBS/0.5% BSA and stained with the viability marker 7-AAD on ice for 10 min in the dark. Sorting was performed on a MOFLO high-speed cell sorter (Beckman-Coulter).” left out
as §2

In a further test the test system is CFU-E cells. Briefly: Flow cytometry of GPA surface expression on cultured CFU-E cells (self-renewal). The settings on record: cultured for 6 days in the presence of lenalidomide. The class given is cell-based, human. As to the method: Cells taken from culture every day (day 1 to day 7) were analyzed for cell surface expression of CD34, IL-3R, CD36, CD71, CD45 and GPA using FACS canto flow cytometer (Becton Dickinson). Cultured cells (1×10^5) were suspended in PBS supplemented with 0.5% BSA and incubated with 4% human AB serum for 10 min on ice in the dark. The cells were subsequently incubated with fluorochrome-conjugated antibodies for 30 min at 4° C. and then washed once with PBS-0.5% BSA. The washed cells were then incubated for 10 min on ice in the dark with 7-AAD for identification of dead cells. All the reactions were performed under conditions of antibody saturation. Electronic compensation was done using unstained samples.
as §2
Next, the effect of lenalidomide on CFU-E cells was examined. In this population, the expression of GPA was determined since GPA becomes positive as CFU-E cells differentiate into proerythroblasts. […] These findings imply that lenalidomide promotes self-renewal of the CFU-E cells.
A general note: A flow cytometer gives signals particle by particle.

These results are taken from patent US20130209431A1, “ISOLATION AND CULTURE OF ERYTHROID PROGENITOR CELLS” (NEW YORK BLOOD CENTER, INC., priority 2012, published 2013).

With `C[C@@H]1C[C@H]2[C@@H]3CCC4=CC(=O)C=C[C@]4(C)[C@@]3(F)[C@@H](O)C[C@]2(C)[C@@]1(O)C(=O)CO` [dexamethasone], in test [1] (dexamethasone 1 μM), the “expansion of CD34+CD36−IL-3R+ cells in the presence versus absence of dexamethasone” value is reported as around 20 fold. In test [1] (dexamethasone 1 μM, from 0.1×10^6 cells, untreated 70-fold), the “expansion of CD34+CD36−IL-3R+ cells” value was 1300 fold. The “cell number reached by CD34+CD36−IL-3R+ cells” value in test [1] (dexamethasone 1 μM, start 0.1×10^6, untreated 7×10^6) is 130×10^6. For the same molecule, the “duration of continued proliferation of CD34+CD36−IL-3R+ cells” value in test [1] (dexamethasone 1 μM, untreated 6 days) was 9 days. In addition, in test [1] (in the presence of dexamethasone), the “reduction of BFU-E cell doubling time” value came out at 33%.
`Nc1cccc2c1CN(C1CCC(=O)NC1=O)C2=O` (centres unmarked) [lenalidomide]: in the test with human CD34+ cells, the “effect on BFU-E colony formation” value was “not BFU-E colony” and the “effect on CFU-E colony formation” value is on record as “promotes CFU-E colony formation”. Moreover, in test [2] (dexamethasone 1 μM or lenalidomide 10 nM), the “response of CD34−CD36+IL-3R− cell proliferation to treatment” value was “enhanced the proliferation and expansion”. In addition, the “increase of CD34−CD36+IL-3R− cell numbers every day” value in test [2] (lenalidomide 10 nM, doubled every 24 hours in the absence) was “tripled”. Also, the “surface expression of GPA on CFU-E cells” value in the test on CFU-E cells is listed as “remains negative”. The “effect on the proliferation of CD34+CD36−IL-3R+ cells” value in test [1] (lenalidomide 10 nM) is “no effect”.
